The values that follow come from patent US20070232594A1, “Aromatic amide derivatives, medicinal compositions containing the same, medical uses of both” (priority 2004, published 2007).

Series [1] deals with T1, cytochrome P-450 (CYP3A4) (Homo sapiens, UniProt P08684).
T1 construct: human liver microsome (1.0 mg/mL) as enzyme; from tissue; host or cells: human liver microsomes
The series is described as follows: Inhibitory effect on cytochrome P-450 (CYP3A4) from human liver microsome. Format: in vitro ADME. As to conditions: test compound 10 μM, testosterone 50 μM substrate, 5 minutes at 37° C., rate of substrate metabolism versus control. Here is the method: The Experiment for Inhibitory Effect on Cytochrome P-450 (CYP3A4) Originated from Human Liver Microsome
The test compounds dissolved in dimethylsulfoxide at 10 mM were added to 0.1 M phosphate buffer (pH7.4) containing 10 mM MgCl2, and human liver microsome (1.0 mg/mL) as enzyme and testosterone (50 μM) as a substrate for CYP3A4 were added to this 0.1M phosphate buffer in order to prepare phosphate buffer solution of the test compounds at final concentration of 10 μM (final volume 0.2 mL). The reaction was started by the addition of NADPH (1.0 mg/mL) and then incubated for 5 minutes at 37° C. After acetonitrile was added to stop the reaction, the residual concentration of testosterone was determined using LC/MS/MS, and calculated the rate of metabolism of substrate from the ratio of content of testosterone at end to that at start (A value). As the same way, the experiment except for the test compounds was carried out and remaining testosterone was determined in the same way as mentioned above. The rate of metabolism of substrate was calculated from the ratio of content of testosterone at end to that at start of the reaction (B value) as control value. The ratio of A value against B value was determined as a degree of incidence of test compounds on metabolic rate, which was shown in Table 70.
A general note: Microsomes from liver hold many membrane-bound enzymes, among them those of drug oxidation.

In another series the target is human V2 receptor (Homo sapiens, UniProt P30518). The series is described as follows: Binding experiment for human V2 receptor ([3H]-AVP displacement, CHO cell membranes). The arrangement: purchased Packard BioScience; host or cells: CHO cells (membranes). As to conditions: [3H]-AVP binding, CHO cell membranes expressing human V2 receptor; Ki calculated from IC50 and Kd. Here is the method: Binding Experiment for Human V2 Receptor
Test compounds were dissolved in dimethylsulfoxide at 10 mM. The affinities for human V2 receptor were determined by an inhibition against [^3H]-Arginie vasopressin (AVP) (Perkin elmer Japan) binding to the human V2 receptor using CHO cell membranes expressed human V2 receptor (Packard BioScience). Cell membranes suspension was prepared by suspending the cell membranes as mentioned above with Assay buffer (50 mM Tris-HCl, 10 mM MgCl2, 0.1% bovine serum albumin (BSA), pH7.4) at an adequate protein concentration. The test compound solutions were prepared by diluting the dimethylsulfoxide solution of the test compound as mentioned above with Assay buffer at final concentration of 10 nM, 100 nM, 1 μM and 10 μM (in this diluting procedure, concentration of dimethylsulfoxide was adjusted to be 0.5% at each concentration of the test compound). Cell membranes suspension (50 μL), 3 nM of [^3H]-AVP (50 μL), Assay buffer (50 μL) and the solution of the test compounds at each concentrations (50 μL) were added to MultiScreen 96-well plate (Millipore) and the mixture was incubated for an hour at 25° C. with shaking slightly. After filtration by aspiration, the plate was washed with ice-cold washing buffer (50 mM Tris-HCl, 10 mM MgCl2, pH 7.4) for three times. After dry the plate, Microscinti-20 (Packard) was added to each well and the plate was shaken slightly, and then radioactivities of each well were counted with a micro plate scintillation counter, TopCount (Packard). Non-specific binding of [^3H]-AVP for cell membranes was determined by adding 1 μM of cold AVP substituted for the test compounds. The concentration of the test compounds inhibiting the specific binding of [^3H]-AVP by 50% was considered as IC50 value.
The Calculation of Kd Value of [^3H]-AVP for the Cell Membranes Expressed Human V2 Receptor
The suspension of the cell membranes expressed human V2 receptor was prepared with diluting adequately with the Assay buffer as mentioned above. In consideration for the radioactivity of [^3H]-AVP, six different concentrations (final concentration; ranging from approximately 100 pM to 6000 pM) of [^3H]-AVP were prepared by serial dilution by from 2 to 3 fold with the Assay buffer. The cell membranes suspension (50 μL), each concentrations of [^3H]-AVP (50 μL), the Assay buffer (50 μL) and 1 μM of cold AVP or the Assay buffer were added to MultiScreen 96-well plate (Millipore) and the mixture was incubated for an hour at 25° C. with shaking slightly. The specific bindings (Bvalue) of each concentrations of the [^3H]-AVP were determined by the method as mentioned above and free-bound contents (F value) at each concentrations of the [^3H]-AVP were determined. The Kd value was calculated by Scatchard analysis using the B value and the F value.

The structures appear in SMILES notation.

T1 sequence (P08684 whole entry): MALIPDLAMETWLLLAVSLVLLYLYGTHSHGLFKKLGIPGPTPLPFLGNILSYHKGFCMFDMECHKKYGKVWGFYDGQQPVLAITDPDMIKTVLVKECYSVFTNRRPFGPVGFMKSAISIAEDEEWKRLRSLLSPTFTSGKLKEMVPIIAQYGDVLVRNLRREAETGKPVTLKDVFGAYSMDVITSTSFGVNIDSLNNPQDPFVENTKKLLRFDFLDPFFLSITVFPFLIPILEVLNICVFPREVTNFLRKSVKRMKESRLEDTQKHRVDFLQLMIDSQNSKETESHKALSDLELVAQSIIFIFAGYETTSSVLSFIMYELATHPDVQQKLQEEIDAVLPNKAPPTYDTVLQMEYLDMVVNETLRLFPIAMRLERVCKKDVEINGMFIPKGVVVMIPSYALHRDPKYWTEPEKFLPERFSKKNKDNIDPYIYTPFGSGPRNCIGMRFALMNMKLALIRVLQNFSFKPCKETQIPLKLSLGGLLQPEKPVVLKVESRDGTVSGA
Sequence of human V2 receptor (P30518 whole entry): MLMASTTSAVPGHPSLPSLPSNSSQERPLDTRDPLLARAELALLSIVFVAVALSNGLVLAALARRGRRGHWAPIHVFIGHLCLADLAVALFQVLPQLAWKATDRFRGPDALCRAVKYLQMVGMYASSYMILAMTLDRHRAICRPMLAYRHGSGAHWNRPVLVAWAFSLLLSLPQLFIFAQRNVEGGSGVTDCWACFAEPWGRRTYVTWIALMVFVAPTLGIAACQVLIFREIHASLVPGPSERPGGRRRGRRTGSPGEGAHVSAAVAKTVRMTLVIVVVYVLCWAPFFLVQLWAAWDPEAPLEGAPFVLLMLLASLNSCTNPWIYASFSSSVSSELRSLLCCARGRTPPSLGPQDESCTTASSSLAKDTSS

One may read the Ki as the dissociation constant of the complex between target and ligand, obtained from inhibition or displacement. On to `CCOC(=O)CN1Cc2ccccc2N(C(=O)c2ccc(N3CCCC3)cc2Cl)CC1=O` [Example 1-7, ethyl [1-(2-chloro-4-pyrro-lidin-1-ylbenzoyl)-3-ox-o-1,2,3,5-tetra-hydrobenzo[e]-1,4-di-azepin-4-yl]acetate], for which the “(A value/B value) × 100” value in series [1] turned out to be 89.9. In addition, on human V2 receptor, the inhibition constant Ki is 86.6 nM.
